Assay [1] deals with rat striatal dopamine receptor (Rattus norvegicus, UniProt P61169). Nature of the assay: Test A: [3H]Spiroperidol displacement from rat striatal dopamine receptor binding sites. The conditions noted are these: rat striatal membranes, [3H]spiroperidol 0.19 nM, 37° C., 10 minutes, pH 7.6; read-out: Test A receptor DA IC50. The procedure: Test A--[^3 H Spiroperidol displacement from rat striatal dopamine receptor binding sites
(a) Radioligand--[phenyl-4-(n)-^3 H]Spiroperido (Amersham International, TRK 570, 21 Ci/mmol was used as a 1 μCi/1 μl solution in ethanol and this solution was diluted to 250 μCi in 1 ml of ethanol to produce a stock solution. This stock solution was diluted 3.2/10,000 in assay buffer and 0.1 ml volumes of this were added to 2 ml binding assays =0.19 nM [^3 H]spiroperidol and =[…]
(b) Assay buffer--The assay buffer was a modified 50 mM Tris HCl buffer with a pH of 7.6 containing the following additions: NaCl-120 mM, KCl-5 mM, MgCl2 -1 mM, CaCl2 -2 mM, Pargyline-10 μM and 1-Ascorbic Acid-0.1%
(c) Membrane preparation--The striata were dissected from male CFHB rats and homogenized in 20 volumes of ice cold 0.32M sucrose with a Teflon/glass homogenizer and the homogenate was centrifuged at 1000 g for 10 minutes. The resulting supernatant was recentrifuged at 30,000 g for 30 minutes and the supernatant was discarded and the pellet was resuspended by homogenization in 30 volumes of ice cold assay buffer.
(d) Non-specific binding--Non-specific binding was accounted for by the inclusion of 1 μM(+)butaclamol in blank binding assays which required a stock solution of 20 μM in distilled water.
(e) Displacing compounds--Solutions were prepared at 20x final assay concentration in distilled water.
(f) Binding assay protocol--1.3 ml assay buffer, 0.5 ml membrane suspension, 0.1 ml distilled H2 O or drug solution and 0.1 ml [^3 H]spiroperidol dilution Binding assays were made up in ice with the [^3 H]spiroperidol being added last and incubated at 37° C. for 10 minutes. The bound ligand was separated by filtration through Whatman GF/C filters under vacuum followed by 2×10 ml rinses of ice cold assay buffer. The filters were dried at 80° C. and counted in 5 ml volumes of ECONOFLUOR (NEN) scintillation cocktail. All binding assays, controls, blanks and each of four displacer concentration were run in triplicate. IC50 values (Test A) were obtained graphically from log dose versus percent inhibition of specific binding plots.

The next assay addresses rat cortical α1 receptor. Description: Test B: [3H]Prazosin displacement from rat cortical α1 receptor binding sites. The settings on record: rat cerebral cortex membranes, [3H]prazosin 0.1 nM, 25° C., 30 minutes, pH 7.5. The procedure:
Test B--[^3 H]Pyrazosin displacement from rat cortical α1 receptor binding sites (a) Radioligand--[^3 H]Prazosin (Amersham International, TRK 647, 28 Ci/mmole) was used as a 1 μCi/1 μl solution and this stock solution was diluted 1/18,000 in assay buffer and 0.1 ml volumes of this were added to 2 ml binding assay. =0.1 nM [^3 H]Prazosin and =0.0056 μCi/binding assay (b) Membrane preparation--The cerebral cortices were dissected from male CFHB rats and homogenized in 20 volumes of ice cold 0.32M sucrose using a Teflon/glass homogenizer and the homogenate was centrifuged at 1000 g for 10 minutes. The resulting pellet was discarded and the supernatant was recentrifuged at 30,000 g for 30 minutes. The supernatant was discarded and the pellet was resuspended by homogenization in 50 volumes of 50 mM pH 7.5 Tris HCl buffer (assay buffer). (c) Non-specific binding--Non-specific binding was accounted for by the inclusion of 100 μM 1-noradrenaline in blank binding assays which required a stock solution of 2 mM 1-noradrenaline made up fresh daily in 0.1% 1-ascorbic acid. (d) Displacing compounds--Solutions were prepared at 20x final assay concentration in distilled water. (e) Binding assay protocol--1.3 ml assay buffer, 0.5 ml membrane suspension, 0.1 ml distilled H2 O or drug solution and 0.1 ml [^3 H]pyrazosin dilution Binding assays were made up in ice with the [^3 H]pyrazosin being added last and incubated at 25° C. for 30 minutes. The bound ligand was separated by filtration through Whatman GF/C glass fibre filters under vacuum followed by 2×10 ml rinses of ice cold assay buffer. The filters were dried at 80° C. and counted in 5 ml volumes of ECONOFLUOR (NEN) scintillation cocktail. All binding assays, controls, blanks and each of four displacer concentrations were run in triplicate. IC50 values (Test B) were obtained graphically from log dose versus percent inhibition of specific binding plots.

The target in another assay is rat cortical α2 receptor. Description: Test C: [3H]Dihydroergocryptine displacement from rat cortical α2 receptor binding sites. The settings on record: rat cortical membranes, [3H]dihydroergocryptine 0.45 nM, 25° C., 45 minutes in the dark; approximately 80% of binding is α2. The procedure: Test C--[^3 H]Dihydroergocryptine displacement from rat cortical α2 *receptor binding sites
(a) Radioligand--[9,10(n)-^3 H]9,10-Dihydroergocryptine (Amersham International, TRK 555, 17.5 Ci/mmole) was used as a 1 μCi/1 μl solution and this stock solution was diluted 1/6250 in assay buffer and 0.1 ml volumes of this were added to 2 ml binding assays. =0.45 nM and =0.016 μCi/binding assay
*In cortical membranes, [^3 H]dihydroergocryptine binds to both α1 and α2 receptor binding sites under the conditions of assay described here, approximately 80% of the binding is associated with α2 receptors.
(§1) (b) Membrane preparation--As for Test B
(c) Non-specific binding--As for Test B
(d) Displacing compounds--As for Test B
(e) Assay protocol--As for Test B with the exception that the binding assays were incubated at 25° C. for 45 minutes in the dark.

In assay [2] the target is rat cortical muscarinic receptor. Description: Test D: [3H]Quinuclidinyl benzylate displacement from rat cortical muscarinic receptor binding sites. The settings on record: rat cortical membranes, [3H]quinuclidinyl benzylate 0.31 nM, 25° C., 60 minutes; read-out: Test D MUSC IC50. The protocol: Test D--[^3 H]Quinuclidinyl benzylate displacement from rat cortical muscarinic receptor binding sites
(a) Radioligand--DL-[3-^3 H]Quinuclidinyl benzylate (Amersham International, TRK 506, 12 Ci/mmol) was used as a 1 μCi/1 μl solution and this stock solution was diluted 1/13333 in assay buffer and 0.1 ml volumes of this were added to 2 ml binding assay =0.31 nM and =0.0075 μCi/binding assay
as §1
(c) Non-specific binding--Non-specific binding was accounted for by the inclusion of 100 μM oxotremorine sesquifumarate in blank binding assays and this required a stock solution of 2 mM in distilled H2 O.
(d) Displacement compounds--As for Test B
(e) Assay protocol--As for Test B with the exception that the binding assays were incubated at 25° C. for 60 minutes.

The values that follow come from US4547507A, “Benzothiopyranopyridinones” (Roussel Uclaf, priority 1982, dated 1985).

The structures appear in SMILES notation. pIC50: −log10 of the molar value.

rat striatal dopamine receptor, sequence (P61169 whole entry): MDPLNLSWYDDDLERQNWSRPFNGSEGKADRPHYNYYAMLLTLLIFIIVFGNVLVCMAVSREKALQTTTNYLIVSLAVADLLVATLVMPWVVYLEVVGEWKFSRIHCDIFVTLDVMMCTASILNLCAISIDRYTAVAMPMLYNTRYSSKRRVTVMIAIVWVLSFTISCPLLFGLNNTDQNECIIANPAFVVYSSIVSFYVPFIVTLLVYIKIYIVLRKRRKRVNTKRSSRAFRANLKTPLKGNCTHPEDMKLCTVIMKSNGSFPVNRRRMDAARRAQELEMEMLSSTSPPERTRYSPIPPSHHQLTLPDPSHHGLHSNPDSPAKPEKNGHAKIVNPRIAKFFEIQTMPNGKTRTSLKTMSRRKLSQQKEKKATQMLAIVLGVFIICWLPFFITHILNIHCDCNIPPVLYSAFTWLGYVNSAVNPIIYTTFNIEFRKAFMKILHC

By pIC50 is commonly meant −log10 of the IC50, conventionally taken in molar units. For the compound `O=c1c2c(sc3ccccc13)CCN(CCC1OCCCO1)C2` [Example 31], the pIC50 in assay [1] is 6.25; at rat cortical α1 receptor, 5.47; on rat cortical α2 receptor, 6.19; in assay [2] it was 4.13.
